Data: PubChem BioAssay AID248 (DTP/NCI, 2004)
Several values for one entry are separate records, joined by “and”; a condition that tells them apart may be missing. Identical values can stand only once. Inconclusive results and toxic doses are left out. Rule as the data show it: active = T/C of 150% or more; inactive = T/C below 125%.

Test system: L1210 leukemia ip in BDF1 mice, survival T/C
Experiment: NCI In Vivo Anticancer Drug Screen. Data for tumor model L1210 Leukemia (intraperitoneal) in B6D2F1 (BDF1) mice
Conditions: endpoint: mean survival time, higher = longer survival
In short: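 Transplantable tumor model; survival measured in treated vs vehicle control mice. Value = treated/control.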

[1] = dose: 100.0 mg/kg/injection, schedule: Q04DX003 (ip), vehicle: saline
[2] = dose: 200.0 mg/kg/injection, schedule: Q04DX003 (ip), vehicle: saline
[3] = dose: 400.0 mg/kg/injection, schedule: Q04DX003 (ip), vehicle: saline
[4] = dose: 100.0 mg/kg/injection, schedule: Q01DX009 (ip), vehicle: saline with Tween-80
[5] = dose: 200.0 mg/kg/injection, schedule: Q01DX009 (ip), vehicle: saline with Tween-80
[6] = dose: 400.0 mg/kg/injection, schedule: Q01DX009 (ip), vehicle: saline with Tween-80
[7] = dose: 100.0 mg/kg/injection, schedule: Q04DX003 (ip), vehicle: Klucel (hydroxypropylcellulose) (HPC)
[8] = dose: 200.0 mg/kg/injection, schedule: Q04DX003 (ip), vehicle: Klucel (hydroxypropylcellulose) (HPC)
[9] = dose: 400.0 mg/kg/injection, schedule: Q04DX003 (ip), vehicle: Klucel (hydroxypropylcellulose) (HPC)
[10] = dose: 75.0 mg/kg/injection, schedule: Q01DX001 (ip), vehicle: carboxymethylcellulose (CMC)
[11] = dose: 150.0 mg/kg/injection, schedule: Q01DX001 (ip), vehicle: carboxymethylcellulose (CMC)
[12] = dose: 100.0 mg/kg/injection, schedule: Q01DX009 (ip), vehicle: Klucel (hydroxypropylcellulose) (HPC)
[13] = dose: 200.0 mg/kg/injection, schedule: Q01DX009 (ip), vehicle: Klucel (hydroxypropylcellulose) (HPC)
[14] = dose: 400.0 mg/kg/injection, schedule: Q01DX009 (ip), vehicle: Klucel (hydroxypropylcellulose) (HPC)
[15] = dose: 50.0 mg/kg/injection, schedule: Q01DX001 (ip), vehicle: carboxymethylcellulose (CMC)
[16] = dose: 100.0 mg/kg/injection, schedule: Q01DX001 (ip), vehicle: carboxymethylcellulose (CMC)
[17] = dose: 200.0 mg/kg/injection, schedule: Q01DX001 (ip), vehicle: carboxymethylcellulose (CMC)
[18] = dose: 400.0 mg/kg/injection, schedule: Q01DX001 (ip), vehicle: carboxymethylcellulose (CMC)

Measured: T/C

C/C=N\NC(N)=O
inactive: dose: 25.0 mg/kg/injection, schedule: Q04DX003 (ip), vehicle: saline 94 % of control | dose: 50.0 mg/kg/injection, schedule: Q04DX003 (ip), vehicle: saline 100 % of control

COc1ccc(CCN2COc3ccc4ccc(=O)oc4c3C2)cc1OC
inactive: dose: 100.0 mg/kg/injection, schedule: Q04DX003 (ip), vehicle: saline sonified 111 % of control | dose: 200.0 mg/kg/injection, schedule: Q04DX003 (ip), vehicle: saline sonified 111 % of control | dose: 400.0 mg/kg/injection, schedule: Q04DX003 (ip), vehicle: saline sonified 106 % of control

O=CC(O)C(O)C(OC1OC(CO)C(OC2OC(CO)C(O)C(O)C2O)C(O)C1O)C(O)CO (configuration not stated)
inactive: [1] 93 % of control | [2] 93 % of control | [3] 94 % of control

CN1CCCCC1CCN1c2ccccc2Sc2ccc(Cl)cc21 (configuration not stated)
inactive: dose: 3.12 mg/kg/injection, schedule: Q01DX009 (ip), vehicle: saline 96 % of control | dose: 6.25 mg/kg/injection, schedule: Q01DX009 (ip), vehicle: saline 97 % of control | dose: 12.5 mg/kg/injection, schedule: Q01DX009 (ip), vehicle: saline 100 % of control | dose: 25.0 mg/kg/injection, schedule: Q01DX009 (ip), vehicle: saline 97 % of control

c1ccc2c(-c3nc4ccccc4[nH]3)cccc2c1
inactive: [4] 91 % of control | dose: 100.0 mg/kg/injection, schedule: Q04DX003 (ip), vehicle: saline with Tween-80 93 % of control | [5] 96 % of control | dose: 200.0 mg/kg/injection, schedule: Q04DX003 (ip), vehicle: saline with Tween-80 93 % of control | [6] 93 % of control | dose: 400.0 mg/kg/injection, schedule: Q04DX003 (ip), vehicle: saline with Tween-80 102 % of control

Nc1nc(N)c(-c2ccc(Cl)c(Cl)c2)c(CBr)n1
inactive: dose: 1.56 mg/kg/injection, schedule: Q01DX009 (ip), vehicle: saline with Tween-80 101 % of control | dose: 3.13 mg/kg/injection, schedule: Q01DX009 (ip), vehicle: saline with Tween-80 101 % of control and 92 % of control | dose: 6.25 mg/kg/injection, schedule: Q01DX009 (ip), vehicle: saline with Tween-80 102 % of control | dose: 12.5 mg/kg/injection, schedule: Q01DX009 (ip), vehicle: saline with Tween-80 99 % of control and 101 % of control | dose: 12.5 mg/kg/injection, schedule: Q04DX003 (ip), vehicle: Klucel (hydroxypropylcellulose) (HPC) 90 % of control | dose: 25.0 mg/kg/injection, schedule: Q04DX003 (ip), vehicle: Klucel (hydroxypropylcellulose) (HPC) 113 % of control | dose: 50.0 mg/kg/injection, schedule: Q04DX003 (ip), vehicle: Klucel (hydroxypropylcellulose) (HPC) 87 % of control | [7] 87 % of control

Cc1ccc(NC(=O)Oc2ccc(Br)cc2)c([N+](=O)[O-])c1
inactive: dose: 100.0 mg/kg/injection, schedule: Q04DX002 (ip), vehicle: Klucel (hydroxypropylcellulose) (HPC) 99 % of control | dose: 200.0 mg/kg/injection, schedule: Q04DX002 (ip), vehicle: Klucel (hydroxypropylcellulose) (HPC) 115 % of control | dose: 400.0 mg/kg/injection, schedule: Q04DX002 (ip), vehicle: Klucel (hydroxypropylcellulose) (HPC) 92 % of control

CC(=O)Nc1ccc(O)cc1[N+](=O)[O-]
inactive: [7] 107 % of control | [8] 103 % of control | [9] 103 % of control

CC(F)C1CCCC(F)C1 (configuration not stated)
inactive: dose: 100.0 mg/kg/injection, schedule: Q01DX001 (ip), vehicle: saline 103 % of control | dose: 200.0 mg/kg/injection, schedule: Q01DX001 (ip), vehicle: saline 100 % of control | dose: 400.0 mg/kg/injection, schedule: Q01DX001 (ip), vehicle: saline 105 % of control

CN(N)C(=O)Nc1ccc(Br)cc1
inactive: [10] 104 % of control | [11] 100 % of control | dose: 300.0 mg/kg/injection, schedule: Q01DX001 (ip), vehicle: carboxymethylcellulose (CMC) 98 % of control

O=C(c1ccccc1)C1CCC1
inactive: [12] 92 % of control | [1] 101 % of control | [13] 98 % of control | [2] 97 % of control | [14] 92 % of control | [3] 97 % of control

CC(=O)N(C)N=Nc1ccc(C)cc1
inactive: dose: 25.0 mg/kg/injection, schedule: Q01DX009 (ip), vehicle: Klucel (hydroxypropylcellulose) (HPC) 116 % of control | dose: 25.0 mg/kg/injection, schedule: Q04DX003 (ip), vehicle: other 101 % of control | dose: 50.0 mg/kg/injection, schedule: Q01DX009 (ip), vehicle: Klucel (hydroxypropylcellulose) (HPC) 110 % of control | dose: 50.0 mg/kg/injection, schedule: Q04DX003 (ip), vehicle: other 106 % of control | [12] 102 % of control and 108 % of control | dose: 100.0 mg/kg/injection, schedule: Q04DX003 (ip), vehicle: other 118 % of control | dose: 200.0 mg/kg/injection, schedule: Q04DX003 (ip), vehicle: other 123 % of control | [14] 105 % of control and 123 % of control

OC(c1ccccc1)(c1ccccc1)C1C(Cc2ccccc2)C1Cc1ccccc1 (configuration not stated)
inactive: dose: 100.0 mg/kg/injection, schedule: Q01DX001 (ip), vehicle: steriod suspending solution 110 % of control | dose: 200.0 mg/kg/injection, schedule: Q01DX001 (ip), vehicle: steriod suspending solution 112 % of control | dose: 400.0 mg/kg/injection, schedule: Q01DX001 (ip), vehicle: steriod suspending solution 104 % of control

CC(=O)Nc1cc(C)ns1
inactive: [15] 104 % of control | [16] 104 % of control | [17] 101 % of control | [18] 98 % of control

COc1ccc(OC)c(NC(=O)c2cccc(N(CCO)CCO)c2)c1
inactive: [16] 102 % of control | [17] 94 % of control | [18] 94 % of control

CC1=C(C#N)C2(CCN(C)CC2)C(C#N)=C(C)N1
inactive: [10] 105 % of control | dose: 75.0 mg/kg/injection, schedule: Q01DX001 (ip), vehicle: saline 104 % of control | [11] 109 % of control

OC(Cc1cc(CC(O)(C(F)(F)F)C(F)(F)F)ncn1)(C(F)(F)F)C(F)(F)F
inactive: [4] 108 % of control | [5] 97 % of control | [6] 97 % of control

CCOP(=O)(Nc1ccc2c(c1)Cc1c-2cc(Cl)c(NC(C)=O)c1Cl)OCC
inactive: [15] 97 % of control | [16] 92 % of control | [17] 94 % of control | [18] 92 % of control

CCOC(=O)c1ccc(NC(=O)Oc2ccc3c(C)cc(=O)oc3c2)cc1
inactive: [12] 101 % of control | [13] 100 % of control | [14] 89 % of control

CC(=O)Nc1ccc(N=CN(C)C)cc1
inactive: [4] 94 % of control | [5] 101 % of control

O=c1ccnc(SCc2ccccc2)[nH]1
inactive: dose: 100.0 mg/kg/injection, schedule: Q01DX Z (ip), vehicle: methylcellulose (MC) 95 % of control | dose: 200.0 mg/kg/injection, schedule: Q01DX Z (ip), vehicle: methylcellulose (MC) 97 % of control

CCN(CC)Cc1cc(C(=N)N)ccc1O
inactive: dose: 56.0 mg/kg/injection, schedule: Q01DX Z (ip), vehicle: carboxymethylcellulose (CMC) 101 % of control | dose: 83.0 mg/kg/injection, schedule: Q01DX Z (ip), vehicle: carboxymethylcellulose (CMC) 95 % of control | dose: 125.0 mg/kg/injection, schedule: Q01DX Z (ip), vehicle: carboxymethylcellulose (CMC) 98 % of control | dose: 187.5 mg/kg/injection, schedule: Q01DX Z (ip), vehicle: carboxymethylcellulose (CMC) 102 % of control

CSc1ccc(OC(=O)Nc2ccc(Cl)cc2Cl)cc1C
inactive: [12] 95 % of control | [13] 98 % of control | [14] 95 % of control

O=C1CC=Nc2ccc([N+](=O)[O-])cc21
inactive: [12] 101 % of control | [7] 98 % of control | [13] 97 % of control | [8] 109 % of control | [14] 101 % of control | [9] 108 % of control
